The values below come from patent US9403811B2, “Crystalline forms of azilsartan medoxomil potassium and preparation and uses thereof” (SUNSHINE LAKE PHARMA CO., LTD., priority 2012, dated 2016).

Molecules are shown by their SMILES.

Series [1] in a line: Solubility test. Format: physicochemical. The following applies: for Solubility: THF (volume of solvent in which the solid dissolved): 0.50 g solid added to THF at room temperature; for Solubility: THF (volume of solvent in which the solid dissolved) / Solubility: Acetone (volume of solvent in which the solid dissolved) / Solubility: Ethanol (volume of solvent in which the solid dissolved) / Solubility: Ethyl acetate (volume of solvent in which the solid dissolved) / Solubility: Methanol (volume of solvent in which the solid dissolved): shaking 30 seconds every 5 minutes, observed with eyes; for Solubility: Acetone (volume of solvent in which the solid dissolved): 0.50 g solid added to acetone at room temperature; for Solubility: Ethanol (volume of solvent in which the solid dissolved): 0.50 g solid added to ethanol at room temperature; for Solubility: Ethyl acetate (volume of solvent in which the solid dissolved): 0.50 g solid added to ethyl acetate at room temperature; for Solubility: Methanol (volume of solvent in which the solid dissolved): 0.50 g solid added to methanol at room temperature; for Solubility: Result: 0.50 g solid in the listed solvent volumes, room temperature, dissolved = no solid detected by human eyes. How it is done: The crystalline form C, D, F, H, J and L of azilsartan medoxomil potassium (0.50 g) was added to the solvent at room temperature. […] The solid was deemed as dissolved when no solid was detected in the mixture by human eyes.
The solubility data of crystalline forms C, D, F, H, J and L of azilsartan medoxomil potassium are as shown below.

Series [2] is described as follows: Stability test. Format: physicochemical. On the procedure:
The stability test of the crystalline form C was conducted under the following conditions:
Storage condition 1: stored under conditions of 40° C./RH75% in a sealed state for 3 and 6 months. […] During the whole test period, no change in total amount of impurities was recognized as compared with that before the beginning of the test.
Storage condition 2: stored under conditions of 40° C./RH75% in an unsealed state for 1 and 3 months.

For `CCOc1nc2cccc(C(=O)OCc3oc(=O)oc3C)c2n1Cc1ccc(-c2ccccc2-c2noc(=O)[n-]2)cc1.[K+]` [Form J, azilsartan medoxomil potassium], in series [1], the “Solubility: THF (volume of solvent in which the solid dissolved)” value (“Solubility: THF” for short) is 12 mL, the “Solubility: Acetone (volume of solvent in which the solid dissolved)” value (“Solubility: Acetone” below) was 8 mL, the “Solubility: Ethanol (volume of solvent in which the solid dissolved)” value (shortened to “Solubility: Ethanol”) amounted to 5.5 ml^ and the “Solubility: Ethyl acetate (volume of solvent in which the solid dissolved)” value (“Solubility: Ethyl acetate” for short) was 11 mL. For the same molecule, in series [1], the “Solubility: Methanol (volume of solvent in which the solid dissolved)” value (from here on “Solubility: Methanol”) was found to be 4 mL and the “Solubility: Result” value is given as “dissolved”.

`CCOc1nc2cccc(C(=O)OCc3oc(=O)oc3C)c2n1Cc1ccc(-c2ccccc2-c2noc(=O)[n-]2)cc1.[K+]` [Form C, azilsartan medoxomil potassium]: in series [1], the “Solubility: THF” value came out at 13 mL, the “Solubility: Acetone” value was 8 mL, the “Solubility: Ethanol” value amounted to 6 mL and the “Solubility: Ethyl acetate” value was 10 mL. For the same molecule, in series [1], the “Solubility: Methanol” value was 5 mL and the “Solubility: Result” value is “dissolved”. For the same molecule, the “conversion of the crystalline form into other polymorphs” value in series [2] (storage condition 1: 40° C./RH75%, sealed state, after six months) is reported as “could not be confirmed”. The “change in total amount of impurities compared with before the beginning of the test” value in series [2] (storage condition 1: 40° C./RH75%, sealed state, whole test period (3 and 6 months)) is listed as “no change”. Moreover, the “total amount of impurities compared with before the beginning of the test” value in series [2] (storage condition 2: 40° C./RH75%, unsealed state, 1 and 3 months) is reported as “increased”. Also, the “conversion of the crystalline form into other polymorphs” value in series [2] (storage condition 2: 40° C./RH75%, unsealed state, after three months) is “could not be confirmed”.

In the case of `CCOc1nc2cccc(C(=O)OCc3oc(=O)oc3C)c2n1Cc1ccc(-c2ccccc2-c2noc(=O)[n-]2)cc1.[K+]` [Form H, azilsartan medoxomil potassium], in series [1], the “Solubility: THF” value was found to be 14 mL, the “Solubility: Acetone” value amounted to 10 mL, the “Solubility: Ethanol” value was 8 mL and the “Solubility: Ethyl acetate” value was found to be 13 mL. In addition, in series [1], the “Solubility: Methanol” value turned out to be 6 mL and the “Solubility: Result” value was “dissolved”.

For the molecule `CCOc1nc2cccc(C(=O)OCc3oc(=O)oc3C)c2n1Cc1ccc(-c2ccccc2-c2noc(=O)[n-]2)cc1.[K+]` [Form D, azilsartan medoxomil potassium], in series [1], the “Solubility: THF” value was found to be 16.5 ml^, the “Solubility: Acetone” value was determined as 9 mL, the “Solubility: Ethanol” value amounted to 5 mL and the “Solubility: Ethyl acetate” value amounted to 12 mL. Moreover, in series [1], the “Solubility: Methanol” value came out at 4 mL and the “Solubility: Result” value is on record as “dissolved”.

For `CCOc1nc2cccc(C(=O)OCc3oc(=O)oc3C)c2n1Cc1ccc(-c2ccccc2-c2noc(=O)[n-]2)cc1.[K+]` [Form F, azilsartan medoxomil potassium], in series [1], the “Solubility: THF” value came to 15 mL, the “Solubility: Acetone” value stood at 12 mL, the “Solubility: Ethanol” value worked out at 6 mL and the “Solubility: Ethyl acetate” value turned out to be 16 mL. Besides, in series [1], the “Solubility: Methanol” value turned out to be 4.5 ml^ and the “Solubility: Result” value is reported as “dissolved”.

`CCOc1nc2cccc(C(=O)OCc3oc(=O)oc3C)c2n1Cc1ccc(-c2ccccc2-c2noc(=O)[n-]2)cc1.[K+]` [Form L, azilsartan medoxomil potassium]: in series [1], the “Solubility: THF” value worked out at 17 mL, the “Solubility: Acetone” value was 11 mL, the “Solubility: Ethanol” value came out at 6 mL and the “Solubility: Ethyl acetate” value was determined as 14 mL. In series [1], the “Solubility: Methanol” value was found to be 5 mL and the “Solubility: Result” value is “dissolved”.
